Assay results published in patent US10881709B2, “Immune system modulators and compositions” (Canimguide Therapeutics AB, priority 2015, dated 2021).
Peptide text beside a SMILES is read from it.

Columns and labels:
P3028 = P3028 (Homo sapiens, UniProt P02768); assay: Binding of His-tag labeled P3028 to looped (cyclic) peptides on chips, ELISA; conditions: positional scan of looped 6-meres
Protocol: In order to identify cyclic peptides that bind to P3028, all possible variants of di- and tripeptides were synthesized on chips and the binding of the His-tag labeled P 3028 was analyzed using the ELISA-technique. Based on the identified binding motifs, looped 6-meres were produced and tested. […] Positional scans were performed in each position of the lead cyclic peptide was replaced with each of the other 19 L-amino acids. Binding of each of the substituted peptides was tested, and peptide sequences with even better binding capacity than that of the lead peptide were identified.

PBMCs = assay: IL-2 induced proliferation of PBMCs, 3H-thymidine incorporation (human ex vivo model); assay type: cell-based; conditions: for inhibition of IL-2 induced proliferation: PBMCs from healthy control samples, 7 days, 3H-thymidine; for neutralization of the inhibitory effect of P3028 on IL-2 induced proliferation: fragments alone or in combination
Protocol: 100 μl of RPMI1640 supplemented with 200 IU/ml penicillin, […] streptomycin, 4 mM L-glutamine (all from Sigma® Chemical Co. MO, US) and 20% heat-inactivated human serum (autologous or from cancer patients) were added to uncoated, HSA or HSA/IgG coated tissue culture microtiter plates. PBMC, isolated from healthy individuals or patients with metastatic renal cell carcinoma, were diluted in RPMI/2% HSA at a concentration of 5×10^5/ml and 100 μl were added to the microtiter wells. Interleukin-2 (IL-2, Proleukin®, Chiron®, NL), at a final concentration of 120 IU/well, was added to some wells. Cells were cultured for 7 days in a humidified, 5% CO2-atmosphere at 37° C. Proliferation was assayed by incorporation of 1.6 μCi/well of [^3H]-thymidine (Amersham® Int., UK) during the last 18 hrs. Mean values of dpm (disintegrations per minute) of triplicates were used for the calculations.
Cultures for IL-2 induced proliferation was set up with PBMC from healthy donors and autologous serum as described above with the exception that PBMC were first pre-incubated for 30 min at room temperature with the indicated albumin peptides at a concentration of 10 μg/ml.
Round-bottomed, 96-well tissue culture plates (Costar®, Corning® Inc. NY, US) were pre-coated with HSA only or HSA and pooled human IgG for intravenous injection (Gammagard®, Baxter AS, DK) as follows; HSA was diluted in RPMI1640 without supplements to a concentration of 10 mg/ml. A mixture of 1 mg/ml IgG in a solution of 9 mg/ml HSA in RPMI (HSA/IgG) was also prepared. 200 μl of HSA or HSA/IgG were then added to each well of the plate. The plates were incubated at 4° C. for 30 minutes after which the wells were washed twice with 200 μl of RPMI1640. The coated plates were used immediately. 100 μl of RPMI1640 supplemented with 200 IU/ml penicillin, […] streptomycin, 4 mM L-glutamine (all from Sigma® Chemical Co. MO, US) and 20% heat-inactivated human serum (autologous) were added to the HSA or HSA/IgG coated tissue culture microtiter wells. PBMC, isolated from healthy individuals, were diluted in RPMI/2% HSA and peptides were added directly to the cell suspension at a concentration of 10 μg/ml. One hundred μl of this cell suspension (5×10^4 lymphocytes) was then added per well providing a final concentration of 5 μg/ml peptide per well. IL-2 (Proleukin®, Chiron®, NL), at a final concentration of 120 IU/well, was added to the wells. Cells were cultured for 7 days in a humidified, 5% CO2-atmosphere at 37° C. Proliferation was assayed by incorporation of 1.6 μCi/well of [^3H]-thymidine (Amersham® Int., UK) during the last 18 hrs. Mean values of dpm (disintegrations per minute) of triplicates were used for the calculations.
The model included PBMCs isolated from venous blood samples from healthy blood donors (control samples) or cancer patients. One hundred pI of culture medium (RPMI 1640 Dutch's modification (Gibco®, InVitrogenAB®, Stockholm, Sweden) supplemented with 200 IV/ml penicillin, 200 ug/ml streptomycin, 4 mM L-glutamine (all from Sigma® Chemical Co. MO, US) and 20% heat-inactivated human serum) were added to roundbottomed, 96-well tissue culture plates (Costar®, Corning® Inc. NY, US). […] Control sample wells without IL-2 was set up in parallel. […]
The effect of different peptides on IL-2 induced proliferation was analyzed in the human ex vivo model, using PBMCs from healthy control samples. […] Proliferation was measured as incorporation of ^3H-thymidine during the final 18 hours. […]

P3028, dHSA, HSA = assay: ELISA and competition ELISA with rabbit anti-3028 antiserum; assay type: binding, human; conditions: competition ELISA, serum L
Protocol: Duplicate wells in Hi-binding microtitre plates (Costar® 2592, Corning® Inc, NY, USA) were coated with 100 μl of P3028 (10 ug/ml), denatured HSA (denHSA, 4.5 ug/ml) or control HSA sample (4.5 ug/ml). All coating reagent were diluted in PBS and incubated at room temperature overnight. The wells where then washed with wash buffer consisting of 0.05% Tween-20 in PBS (Sigma®) followed by blocking for 1 hr at 25° C. with 200 μl 0.5% gelatin prepared from bovine skin (Sigma®) in PBS followed by washing in wash buffer. […] Biotinylated horse anti-rabbit/mouse IgG (Vectastain® ELITE, Vector® Laboratories Inc, CA, USA) diluted 1/5 in ELISA reagent diluent was then added and the plates incubated for 1 h at 25° C. followed by washing. Next, HRP-conjugated streptavidin (R&D Systems® Europe, Ltd, UK) was added. Finally, after washing in wash buffer, substrate solution consisting of H2O2 and tetramethylbenzidine (R&D Systems®) was added. The reaction was stopped with 1M H2504 and the optical density measured as absorbance (A) at dual wavelengths, 450 nm and 570 nm, with a Multiscan® EX microplate reader (Labsystems).
Two antisera, R and L, from two different rabbits were tested for their ability to bind human serum and denatured Human Serum Albumin (dHSA). […] No substantial binding was detected for wells with no coat 202. […]

Solubility = assay type: physicochemical
K562 target cells = assay: NK-cell cytotoxicity (NKTEST, flow cytometry); assay type: cell-based, human; conditions: 10 ug/ml peptide, effector:target 40:1, four donors
Protocol: The NK-cell cytotoxic activity of blood mononuclear cells from four healthy donors was tested. Mononuclear cells were separated by standard Ficoll-Paque® Plus (Pharmacia AB, Sweden) density gradient centrifugation from heparinized blood obtained from healthy donors. NK cell cytotoxic activity of the mononuclear cells was then tested using a commercial kit (NKTEST, Orpegen Pharma GmblI, Heidelberg, Germany) following the manufacturers protocol. Briefly, the kit contains cryopreserved, NK-sensitive target cells (K562) labeled with a lipophilic green fluorescent membrane dye, which enables discrimination of effector and target cells. After incubation with effector cells, killed target cells are identified by a DNA-stain, which penetrates and specifically stain the nuclei of dead target cells. This way the percentage of killed targets can be determined by flow cytometry. The mononuclear cells were preincubated for 30 min at 37° C. with the indicated peptides (peptides have been described previously) at 10 ug/ml. Target cells were then added, giving an effector:target ratio of 40:1, and the cell mixture incubated at 37° C. for 3-4 hours. Samples were analysed on a FACSCalibur (BD® Biosciences, San Jose, Calif.).

Row | Compound | binding of cyclic peptides to P3028 (P3028) | inhibition of IL-2 induced proliferation (PBMCs) | neutralization of the inhibitory effect of P3028 on IL-2 induced proliferation (PBMCs) | binding of rabbit anti-P3028 serum antibodies to P3028 fragments (P3028, dHSA, HSA) | also measured
1 | CLRLIVMCG [SEQ ID NO: 266] | highest affinity |  |  |  | 
2 | CLRLNVFCG [SEQ ID NO: 265] | highest affinity |  |  |  | 
3 | EPQNLIK (listed as Homo sapiens) [P3218] |  | much weaker | do not inhibit | not | 
4 | CC(C)C[C@H](NC(=O)[C@H](CO)NC(=O)[C@H](CC(C)C)NC(=O)[C@H](Cc1ccc(O)cc1)NC(=O)[C@@H](NC(=O)[C@H](Cc1ccccc1)NC(=O)[C@H](Cc1ccccc1)NC(=O)[C@@H](NC(=O)[C@H](CC(=O)O)NC(=O)[C@H](CC(C)C)NC(=O)[C@H](CCCCN)NC(=O)[C@@H](N)CCCCN)[C@@H](C)O)C(C)C)C(=O)N[C@@H](Cc1ccccc1)C(=O)N[C@H](C(=O)N[C@@H](CCC(=O)O)C(=O)N[C@@H](CCCNC(=N)N)C(=O)O)[C@@H](C)O [SEQ ID NO: 552] (H-KKLDTFFVYLSLFTER-OH; N-terminus and C-terminus assumed) |  |  |  |  | solubility (Solubility): soluble in aqueous solution
5 | VFDEFKPLVE (listed as Homo sapiens) [P3325] |  | much weaker | do not inhibit | bound preferentially | 
6 | CC(C)C[C@H](NC(=O)[C@H](C)NC(=O)[C@H](CC(N)=O)NC(=O)[C@H](CCC(N)=O)NC(=O)[C@H](Cc1ccccc1)NC(=O)[C@H](CCCCN)NC(=O)[C@H](Cc1ccc(O)cc1)NC(=O)[C@H](CCC(=O)O)NC(=O)CNC(=O)[C@H](CC(C)C)NC(=O)[C@H](CCC(N)=O)NC(=O)[C@H](CCC(=O)O)NC(=O)[C@H](Cc1ccccc1)NC(=O)[C@H](CC(C)C)NC(=O)[C@@H](N)CCC(=O)O)C(=O)N[C@@H](CC(C)C)C(=O)N[C@H](C(=O)N[C@@H](CCCNC(=N)N)C(=O)O)C(C)C [P3027] (H-ELFEQLGEYKFQNALLVR-OH; N-terminus and C-terminus assumed) |  |  |  |  | effect on NK-cell cytotoxicity (percent specific lysis of K562) (K562 target cells): Inhibition was not seen
